Columns and labels:
Japanese bulrush = experiment: Test Example 1: herbicidal activity, application before weed generation under submerged conditions (Table 16, symbol B); type: in vivo, Japanese bulrush (Schoenoplectus juncoides); details: amount of applied herbicide 320 g/ha
Summary of the method: (§1)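 Alluvial soil was flooded to 4 cm depth, weed seeds were sown mixed and 2.5-leaf rice seedlings were transplanted. On sowing day, the compound's emulsion, diluted in water to a set dose, was applied to the water surface. Plants grew at 25–30 °C and were scored 0–5 after three weeks.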

late watergrass [1] = experiment: Test Example 2: herbicidal activity, application during weed generation under submerged conditions (Table 17, symbol A); type: in vivo, late watergrass (Echinochloa oryzicola); details: AAH 320 g/ha; application during weed generation, submerged conditions
Summary of the method: (§2)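 In this pot test, flooded alluvial soil (water depth 4 cm) holds all three species sown as a mixture. Once seedlings have one to two leaves, the compound's emulsion, thinned with water to the intended dose, is poured on the water; grading follows after three weeks on the earlier criteria.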

redroot pigweed [2] = experiment: Test Example 4: herbicidal effect by soil treatment (Table 19, symbol N); type: in vivo, redroot pigweed (Amaranthus retroflexus); details: amount of applied herbicide 320 g/ha
Summary of the method: (§3)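 Pre-emergence style soil spray: seeds under ~1.5 cm sterilized diluvial soil received a uniform coat of emulsion diluted to the predetermined herbicide amount. Greenhouse 25–30° C; readout at week three on previously defined criteria.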

velvetleaf = experiment: Test Example 4: herbicidal effect by soil treatment (Table 19, symbol M); type: in vivo, velvetleaf (Abutilon theophrasti); details: amount of applied herbicide 320 g/ha
Summary of the method: as §3

false cleavers = experiment: Test Example 4: herbicidal effect by soil treatment (Table 19, symbol Q); type: in vivo, false cleavers (Galium spurium); details: amount of applied herbicide 320 g/ha
Summary of the method: as §3

barnyard grass = experiment: Test Example 3: herbicidal effect by foliage application, Wagner pot (Table 18, symbol H); type: in vivo, barnyard grass (Echinochloa crus-galli); details: for herbicidal effect on barnyard grass (H): 320 g/ha; for Herbicidal effect on H (barnyard grass), foliage application: amount of applied herbicide 320 g/ha
Summary of the method: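 Plants were sown in alluvial soil held under 0.1–0.5 cm standing water and grown 14 days in a greenhouse at 25–30 °C. An emulsifiable formulation, water-diluted to the set dose, was then sprayed onto the foliage, and effects were scored three weeks later using previously defined criteria.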

southern crabgrass [3] = experiment: Test Example 4: herbicidal effect by soil treatment (Table 19, symbol F); type: in vivo, southern crabgrass (Digitaria ciliaris); details: amount of applied herbicide 320 g/ha
Summary of the method: as §3

oval-leafed pondweed [4] = experiment: Test Example 2: herbicidal activity, application during weed generation under submerged conditions (Table 17, symbol C); type: in vivo, oval-leafed pondweed (Monochoria vaginalis); details: AAH 320 g/ha; application during weed generation, submerged conditions
Summary of the method: as §2

wild oat = experiment: Test Example 4: herbicidal effect by soil treatment (Table 19, symbol I); type: in vivo, wild oat (Avena fatua); details: amount of applied herbicide 320 g/ha
Summary of the method: as §3

redroot pigweed [5] = experiment: Test Example 5: herbicidal effect by foliage application, plastic box (Table 20, symbol N); type: in vivo, redroot pigweed (Amaranthus retroflexus); details: foliage application, 320 g/ha; for N: redroot pigweed, herbicidal effect grade: three weeks after application
Summary of the method: (§4)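 Plants were sown into sterilized diluvial soil under about 1.5 cm cover and kept in a greenhouse at 25° C. to 30° C. Fourteen days on, foliage received an even spray of the diluted emulsion. Herbicidal or crop effect was judged three weeks afterwards.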

chickweed = experiment: Test Example 4: herbicidal effect by soil treatment (Table 19, symbol P); type: in vivo, common chickweed (Stellaria media); details: amount of applied herbicide 320 g/ha
Summary of the method: as §3

persian speedwell = experiment: Test Example 4: herbicidal effect by soil treatment (Table 19, symbol R); type: in vivo, Persian speedwell (Veronica persica); details: amount of applied herbicide 320 g/ha
Summary of the method: as §3

late watergrass [6] = experiment: Test Example 1: herbicidal activity, application before weed generation under submerged conditions (Table 16, symbol A); type: in vivo, late watergrass (Echinochloa oryzicola); details: amount of applied herbicide 320 g/ha
Summary of the method: as §1

green foxtail = experiment: Test Example 5: herbicidal effect by foliage application, plastic box (Table 20, symbol G); type: in vivo, green foxtail (Setaria viridis); details: foliage application, 320 g/ha; for G: green foxtail, herbicidal effect grade / herbicidal effect on green foxtail (G): three weeks after application
Summary of the method: as §4

oval-leafed pondweed [7] = experiment: Test Example 1: herbicidal activity, application before weed generation under submerged conditions (Table 16, symbol C); type: in vivo, oval-leafed pondweed (Monochoria vaginalis); details: amount of applied herbicide 320 g/ha
Summary of the method: as §1

southern crabgrass [8] = experiment: Test Example 5: herbicidal effect by foliage application, plastic box (Table 20, symbol F); type: in vivo, southern crabgrass (Digitaria ciliaris); details: foliage application, 320 g/ha; for F: southern crabgrass, herbicidal effect grade / herbicidal effect on southern crabgrass (F): three weeks after application
Summary of the method: as §4

windgrass = experiment: Test Example 4: herbicidal effect by soil treatment (Table 19, symbol L); type: in vivo, windgrass (Apera spica-venti); details: amount of applied herbicide 320 g/ha
Summary of the method: as §3

[9] = evaluated 3 weeks after application

SMILES	Herbicidal effect, B: Japanese bulrush (Japanese bulrush)	herbicidal effect rating, A: late watergrass (late watergrass [1])	N: redroot pigweed, herbicidal effect grade (redroot pigweed [2])	M: velvetleaf, herbicidal effect grade (velvetleaf)	Q: false cleavers, herbicidal effect grade (false cleavers)	herbicidal effect on barnyard grass (H) (barnyard grass)	F: southern crabgrass, herbicidal effect grade (southern crabgrass [3])	herbicidal effect rating, C: oval-leafed pondweed (oval-leafed pondweed [4])	I: wild oat, herbicidal effect grade (wild oat)	N: redroot pigweed, herbicidal effect grade (redroot pigweed [5])	P: chickweed, herbicidal effect grade (chickweed)	R: persian speedwell, herbicidal effect grade (persian speedwell)	Herbicidal effect, A: late watergrass (late watergrass [6])	G: green foxtail, herbicidal effect grade (green foxtail)	Herbicidal effect, C: oval-leafed pondweed (oval-leafed pondweed [7])	F: southern crabgrass, herbicidal effect grade (southern crabgrass [8])	Herbicidal effect on H (barnyard grass), foliage application (barnyard grass)	L: windgrass, herbicidal effect grade (windgrass)	herbicidal effect on green foxtail (G) (green foxtail)	herbicidal effect on southern crabgrass (F) (southern crabgrass [8])	other results
CCOc1cc(F)ccc1-c1sc2cc(Cl)ccc2c1-c1c(O)c(C)nn(C)c1=O [3-045]	1 (Herbicidal rate of 5% or more and less than 20%)	2 (Herbicidal rate of 20% or more and less than 40%)	3 (Herbicidal rate of 40% or more and less than 70%)	2 (Herbicidal rate of 20% or more and less than 40%)	4 (Herbicidal rate of 70% or more and less than 90%)	5 (Herbicidal rate of 90% or more (almost completely withered))	5 (Herbicidal rate of 90% or more (almost completely withered))	0 (Herbicidal rate of 5% or less (almost no effect))	0 (Herbicidal rate of 5% or less (almost no effect))	4 (Herbicidal rate of 70% or more and less than 90%)	4 (Herbicidal rate of 70% or more and less than 90%)	3 (Herbicidal rate of 40% or more and less than 70%)	2 (Herbicidal rate of 20% or more and less than 40%)	5 (Herbicidal rate of 90% or more (almost completely withered))	0 (Herbicidal rate of 5% or less (almost no effect))	5 (Herbicidal rate of 90% or more (almost completely withered))	–	–	–	–	–
COc1ccc(-c2oc3ccc(Cl)cc3c2-c2c(O)c(C)nn(C)c2=O)cc1 [9-002]	3 (Herbicidal rate of 40% or more and less than 70%)	0 (Herbicidal rate of 5% or less (almost no effect))	4 (Herbicidal rate of 70% or more and less than 90%)	2 (Herbicidal rate of 20% or more and less than 40%)	0 (Herbicidal rate of 5% or less (almost no effect))	–	2 (Herbicidal rate of 20% or more and less than 40%)	3 (Herbicidal rate of 40% or more and less than 70%)	0 (Herbicidal rate of 5% or less (almost no effect))	–	4 (Herbicidal rate of 70% or more and less than 90%)	4 (Herbicidal rate of 70% or more and less than 90%)	0 (Herbicidal rate of 5% or less (almost no effect))	–	2 (Herbicidal rate of 20% or more and less than 40%)	–	3 (Herbicidal rate of 40% or more and less than 70%)	5 (Herbicidal rate of 90% or more (almost completely withered))	0 (Herbicidal rate of 5% or less (almost no effect))	0 (Herbicidal rate of 5% or less (almost no effect))	–
CSc1ccc(-c2oc3ccc(F)cc3c2-c2c(O)c(C)nn(C)c2=O)cc1 [9-037]	0 (Herbicidal rate of 5% or less (almost no effect))	0 (Herbicidal rate of 5% or less (almost no effect))	5 (Herbicidal rate of 90% or more (almost completely withered))	3 (Herbicidal rate of 40% or more and less than 70%)	0 (Herbicidal rate of 5% or less (almost no effect))	–	4 (Herbicidal rate of 70% or more and less than 90%)	2 (Herbicidal rate of 20% or more and less than 40%)	0 (Herbicidal rate of 5% or less (almost no effect))	–	–	4 (Herbicidal rate of 70% or more and less than 90%)	3 (Herbicidal rate of 40% or more and less than 70%)	–	0 (Herbicidal rate of 5% or less (almost no effect))	–	5 (Herbicidal rate of 90% or more (almost completely withered))	0 (Herbicidal rate of 5% or less (almost no effect))	5 (Herbicidal rate of 90% or more (almost completely withered))	4 (Herbicidal rate of 70% or more and less than 90%)	–
COCCOc1ccc(-c2oc3ccc(F)cc3c2-c2c(O)c(C)nn(C)c2=O)cc1 [9-045]	5 (Herbicidal rate of 90% or more (almost completely withered))	3 (Herbicidal rate of 40% or more and less than 70%)	5 (Herbicidal rate of 90% or more (almost completely withered))	5 (Herbicidal rate of 90% or more (almost completely withered))	0 (Herbicidal rate of 5% or less (almost no effect))	–	5 (Herbicidal rate of 90% or more (almost completely withered))	5 (Herbicidal rate of 90% or more (almost completely withered))	0 (Herbicidal rate of 5% or less (almost no effect))	–	1 (Herbicidal rate of 5% or more and less than 20%)	4 (Herbicidal rate of 70% or more and less than 90%)	5 (Herbicidal rate of 90% or more (almost completely withered))	–	5 (Herbicidal rate of 90% or more (almost completely withered))	–	5 (Herbicidal rate of 90% or more (almost completely withered))	–	–	–	N (redroot pigweed) herbicidal effect grade (redroot pigweed [5]; [9]): 5 (Herbicidal rate of 90% or more (almost completely withered)); G (green foxtail) herbicidal effect grade (green foxtail; [9]): 5 (Herbicidal rate of 90% or more (almost completely withered)); F (southern crabgrass) herbicidal effect grade (southern crabgrass [8]; [9]): 5 (Herbicidal rate of 90% or more (almost completely withered))
COc1ccccc1-c1sc2cc(OCC(F)(F)F)ccc2c1-c1c(O)c(C)nn(C)c1=O [Compound No. 3-116, 5-hydroxy-4-(2-(2-methoxyphenyl)-6-(2,2,2-trifluoroethoxy)benzo[b]thiophen-3-yl)-2,6-di methylpyridazin-3 (2H)-one]	5 (Herbicidal rate of 90% or more (almost completely withered))	4 (Herbicidal rate of 70% or more and less than 90%)	5 (Herbicidal rate of 90% or more (almost completely withered))	4 (Herbicidal rate of 70% or more and less than 90%)	–	5 (Herbicidal rate of 90% or more (almost completely withered))	5 (Herbicidal rate of 90% or more (almost completely withered))	4 (Herbicidal rate of 70% or more and less than 90%)	3 (Herbicidal rate of 40% or more and less than 70%)	5 (Herbicidal rate of 90% or more (almost completely withered))	4 (Herbicidal rate of 70% or more and less than 90%)	5 (Herbicidal rate of 90% or more (almost completely withered))	5 (Herbicidal rate of 90% or more (almost completely withered))	5 (Herbicidal rate of 90% or more (almost completely withered))	5 (Herbicidal rate of 90% or more (almost completely withered))	5 (Herbicidal rate of 90% or more (almost completely withered))	–	4 (Herbicidal rate of 70% or more and less than 90%)	–	–	–
